In assay [1] the test system is ovariectomized female Wistar rats. Put plainly: Object recognition task in ovariectomized rats (in vivo model for dementia due to menopause). The following applies: SUVN-502 1, 3 and 10 mg/kg, p.o. one hour prior to evaluation, FIGS. 1 and 2. Further details: species or system rat. On the procedure: Object Recognition Task (In Vivo Model for Dementia Due to Menopause) Bilateral ovariectomy surgery was carried out in 7-8 weeks old female rats. Briefly, animals were anesthetized using Avertin (2,2,2-tri bromo ethanol) at 150 mg/kg, i.p. and were lay down on the surgery table. A midline incision was given on the dorsal region below the rib cage and 1 cm lateral to the either side of midline, a small incision was given on fascia to locate the adipose fat supporting the ovaries. By slowly pulling out the fat tissue, the ovary is identified and excised following the uterine horn ligation with silk sutures. Fascia was also covered with sutures and the similar procedure was repeated on the other side. Superficial skin layers were sutured and gentamicin (15 mg/kg, s.c.) was given as antibiotic and meloxicam (1 mg/kg, i.m.) as analgesic with povidone iodine applied on superficial skin layers at last. Episodic memory which is a memory of autobiographical events contextual in relation to time, place etc. was assessed 4 weeks after the surgery using object recognition task. Object recognition task was carried out using black circular arenas (50 cm height×50 cm diameter) made of PVC laminates. […] Discriminative index was calculated as ratio of time spent exploring the novel object divided by sum of time spent exploring the novel object and familiar object in choice trial.

For a further assay, the system named is Aged rats. The assay can be described thus: Morris water maze task in aged rats (in vivo model for senile dementia). The following applies: 10 mg/kg, p.o. Further details: species or system rat. On the procedure:
Morris Water Maze Task (In Vivo Model for Senile Dementia): The water maze apparatus consisted of a circular pool (1.8 m diameter, 0.6 m high) constructed in black perspex (TSE, systems, Germany) filled with water (24° C.). The maze was positioned underneath a wide-angled video camera. A 16 cm diameter perspex platform, lying 1 cm below the water surface, was placed in the center of one of the four imaginary quadrants, which remained constant for all rats. The maze offered no intra-maze cues to guide the escape behavior, however, the training room offered several strong extra maze visual cues to aid escape learning. An automated tracking system (Videomot 2 (5.51), TSE systems, Germany) was employed to track animal and record the parameters. […] Aged rats (˜80 weeks old) were placed facing the wall of the maze and lowered gently, feet first into water. Rats were allowed to swim for 60 seconds to find the platform. If the platform was found during this time, the trial was stopped and rat was allowed to stay on platform for 10 seconds before being removed from the maze. If the platform was not found during the 60 seconds trial, rat was guided to the platform and allowed to stay on platform for 10 seconds before being removed from the maze. The rats were taken off the platform ensuring that the rat see the investigator's hand from the front before removal. They were dried gently with a towel. Each rat received 4 trials in a day. The maze has 8 starting points. On the first, third and fifth day the animals started from 1st, 3rd, 5th and 7th starting point and on the second and fourth day the animals started from 2nd, 4th, 6th and […]. […] Retention of the task was assessed on 10th day, during which each animal received a single 30 seconds probe trial. […] Latency to reach the platform (s), swim speed (cm/s) and path length (cm) were recorded during acquisition trials. Percentage time spent in target quadrant (quadrant in which platform was placed during acquisition training) and swim speed (cm/s) were recorded for the probe trial.

In the next assay the test system is CD1 mice. Put plainly: Resident intruder task (in vivo model for aggression due to dementia). The arrangement: species or system mouse. To be noted: 1, 3 and 10 mg/kg, p.o., 60 minutes prior to the trial, FIG. 4. How it is done:
Resident Intruder Task (In Vivo Model for Aggression Due to Dementia): Male CD1 mice of weight 20-35 g (Resident), 15-25 g (Intruder) and ovariectomized female mice (20-25 g) were used. Resident mice were habituated individually with ovariectomized female mice in each cage. β-estradiol at a dose of 0.2 mg/kg, s.c. was administered to female mice during habituation. Intruders were habituated socially for 1 week. On day 1 and day 2, intruder was exposed to resident mice in resident's home cage for a period of 10 minutes and duration of attack was recorded. During this exposure period, female mice were removed from the cage. On day 4, animals were randomized based on their duration of attack and respective treatments were administered. […] After post dose interval, resident mice were exposed to same intruder for 10 min and duration of attack was recorded.

In the next assay the test system is BCCL rats. Put plainly: Contextual fear conditioning in bilateral common carotid artery ligated rats (in vivo model for vascular dementia). The arrangement: species or system rat. To be noted: 3 and 10 mg/kg, p.o., 60 min post dose, FIG. 5. From the text:
Contextual Fear Conditioning (In Vivo Model for Vascular Dementia): Male Wistar rats of age 2-3 months were used. Rats were induced vascular dementia by surgical procedure, which involves bilateral common carotid artery ligation (BCCL). Briefly, rats were anaesthetized using 2-5% isoflurane gaseous anesthesia. A dorsal incision was made near the neck region and two bilateral common carotid arteries were exposed. Both the arteries were separated from their sheaths and vagal nerves, and permanently ligated using 4-0 silk sutures. Sham animals were subjected to surgery except for ligation. After an induction period of 14 days, rats were examined in fear conditioning task. On day 1, rats were placed in the behavioral chamber and allowed to acclimatize for 1 min. Post acclimatization rats received a conditioned stimulus (CS) (tone for 10 sec) followed by an unavoidable foot shock (unconditioned stimulus (US): electric shock of 0.4 mA for 1 sec). Following a 40 sec interval between each administration, tone and shock were repeated to deliver a total of six CS-US pairings. […] After post dose interval of 60 min, animals were scored for the duration of freezing without shock stimulus. Shocking and scoring was controlled by Freeze frame software.

Another assay relates to Male Wistar rats. The assay can be described thus: Object recognition task in doxorubicin-treated rats (in vivo model for chemotherapy-induced cognitive impairment). The arrangement: species or system rat. The following applies: DOX 2.5 mg/kg, i.p. treated male Wistar rats; SUVN-502 1 and 10 mg/kg, p.o.; FIG. 6. On the procedure:
Male Wistar rats (230-280 g) were used as experimental animals. Four animals were housed in each cage. Rats were acclimatized for 7 days (Days 1-7) to the laboratory conditions. Chemotherapy-induced cognitive impairment was induced by injecting doxorubicin (DOX) at 2.5 mg/kg, i.p. once in every 5 days up to 8 cycles (days 8-49). […] On experimental day 50, following 60 min of formulation dosing, animals were habituated to the arenas for 45 min. On day 51, animals were treated with their respective formulations 60 min prior to the familiarization trial (T1) during which rats was presented with two similar objects i.e., silver Milton flasks (a1 and a2) for 3 min. After an interval of 30 min, rats were subjected to choice trial (T2), with one familiar (silver, a3) and one novel (red, b) object for a period of 3 min. During the T1 and T2 trials, exploration time of each object (defined as sniffing, licking, chewing or having moving vibrissae whilst directing the nose towards the object at a distance of less than 1 cm) were recorded separately by hand held stop watch. • Reference: Behavioural Brain Research, 1988, 31, 47-59.

On to `COc1ccc2c(c1)c(CN1CCN(C)CC1)cn2S(=O)(=O)c1ccccc1Br` [SUVN-502, 1-[(2-Bromophenyl)sulfonyl]-5-methoxy-3-[(4-methyl-1-piperazinyl)methyl]-1H-indole dimesylate monohydrate], for which the “effect on object memory deficits” value in assay [1] is on record as “reversed the object memory deficits”. Besides, in the assay on Aged rats (aged rats (~80 weeks old), acquisition days 3, 4 and 5, p<0.05, p<0.01), the “path length versus vehicle treated group” value is on record as “significantly lesser”. For the same molecule, in the assay on Aged rats (aged rats, days 3, 4 and 5, statistically significant (p<0.05, p<0.01) only on day 3 and 5), the “target latency versus vehicle treated group” value is recorded as “also lesser”. Moreover, the “time in the target quadrant during the probe trial versus vehicle” value in the assay with Aged rats (aged rats, probe trial on 10th day, p<0.05) is “more time in the target quadrant”. Further, the “aggression levels (duration of attack)” value with CD1 mice is “decreased the aggression levels”. Besides, the “memory (duration of freezing)” value in the assay on BCCL rats was “improved the memory”. The “novel object recognition (exploration time, novel versus familiar object)” value in the assay on Male Wistar rats is listed as “increased novel object recognition”.
Regarding `COc1cc2c(cc1OC)C(=O)C(CC1CCN(Cc3ccccc3)CC1)C2` (centres unmarked) [donepezil, reference compound], the “effect on object memory deficits” value in assay [1] was “did not reverse the object memory deficits”.

The record behind these values is patent publication US20210338661A1, “NEW USES OF A PURE 5-HT 6 RECEPTOR ANTAGONIST” (SUVEN LIFE SCIENCES LIMITED, priority 2017, published 2021).
